The subject of one data set is PC3 tumors. The data set is described as follows: Antitumor activity of Compound 1 in PC3 human prostate cancer xenograft model. The class given is in vivo, SCID mice. Particulars: for tumor volume reduction compared with vehicle control: Day 31; for tumor volume reduction compared to vehicle control / tumor inhibition compared to vehicle control: day 31. The method, then:
The BID dose groups were dosed with a 10-hour separation between the morning and evening doses. […] At the end of each study, plasma and/or tumor samples were collected.
PC3 cell line was obtained from American Tissue Culture Collection (ATCC) (Gaithersberg, Md.) and grown in growth medium containing Ham's F12K medium with 2 mM L-glutamine adjusted to contain 1.5 g/L sodium bicarbonate and 10% of fetal bovine serum. The cells were detached from tissue culture flasks using trypsin-EDTA. After centrifugation, the cell pellets were suspended in phosphate buffered saline (PBS) and counted using a hemocytometer.
Mice were anesthetized with inhaled isoflurane and then inoculated with PC3 tumor cells subcutaneously on the right hind leg with 0.1 mL of single cell suspensions in Matrigel using a sterile 1 mL syringe fitted with a 26 gauge needle. Following inoculation, the mice were returned to microisolator cages.
Following inoculation, the tumors were allowed to grow to about 100 mm^3 or 500 mm^3 prior to randomization. For efficacy studies, animals with tumors of approximately 100 mm^3 were used. The typical number of days required for tumors to reach 100 mm^3 was 9 to 11 days. The tumor of each animal was measured and animals with tumors ranging between 100 and 200 mm^3 were included in the study. For tolerability and regression studies, animals with tumors of approximately 500 mm^3 (range 300-500 mm^3) were used. The typical number of days required for tumors to reach 500 mm^3 was 20 to 22 days. The animals were then distributed randomly into various cages and the cages were randomly assigned to vehicle, positive control or test article groups. All of the mice were tagged with metal ear tags on the right ear. A typical efficacy study group consisted of 8 to 10 animals. Tolerability study group consisted of 4-6 animals.
The formulations were homogenized using a Teflon™ pestle and mortar (Potter-Elvehjem tissue grinder). Between the doses, the formulated compound was stored under constant stirring using a magnetic stirrer at 4° C. in the dark. The test article and vehicle were administered by oral gavage. […] Sterile syringes and gavage needles were used for compound administration. All the procedures including injections were done in biosafety cabinets sprayed with 70% ethanol prior to use.
Tumor volumes were determined prior to the initiation of treatment and were considered as the starting volumes. Thereafter, tumors were measured twice a week for the duration of the study. The long and short axes of each tumor were measured using a digital caliper in millimeters. The tumor volumes were calculated using the formula: width^2× length/2. The tumor volumes were expressed in cubic millimeters (mm^3).
(A xenograft is tissue or cells of one species grown in another, often human tumour cells in immunodeficient mice.)

Data set [1] in a line: 5-day tolerability study of Compound 1 in PC3 tumor-bearing mice (body weight). In kind it is in vivo, SCID mice. The method, then: Plasma and tumor samples were collected 24 hours after the last dose in each dose group.
Mice were monitored daily for clinical signs and body weight changes. At the end of the study, mice were euthanized and plasma and tumor samples were collected for PK/PD determination. PD markers, pS6 and pAkt, were measured using MSD technology.
Initial body weights were recorded prior to the initiation of treatment using a digital scale. The percent body weight change during the course of the study was calculated using initial body weight measurements. Body weights of each animal were measured twice a week at the same time that tumor measurements were taken. Body weights were measured more frequently if significant decreases were noted during the course of the study.
In preparation for xenograft studies, a 5-day tolerability study was performed. […] The animals in the 50 mg/kg dose group lost >17% of the starting body weight by Day 5 (24 hours after the 4th dose). The animals in this group were euthanized. By Day 6 (24 hours after the 5th dose), the animals in the 25 mg/kg and 10 mg/kg groups lost 9% and 4%, respectively, of the starting body weight.

A further data set relates to PC3 cell line. Nature of the data set: WST-1 cell proliferation assay (Compound 2). The class given is cell-based. Particulars: Homo sapiens. As to the method:
All growth inhibition experiments were repeated on different occasions at least twice. Potency was determined by calculating the IC50 value using the data describing the growth inhibition curve. A reference compound was included in each plate assay to monitor inter-assay variation and the IC50 value for the reference compound was used as part of the acceptance criteria for the assay. […] Next, compound was added to the designated well at a dilution of 1:10 (i.e., 20 μL of the diluted compound was added to 180 μL of culture media in each well). The final dilution of compound was 1:500, which yielded a final DMSO concentration of 0.2% in each well. All concentrations were performed in triplicate. Additionally, each plate tested contained cells treated with a reference compound in order to evaluate interassay variation and the IC50 value generated was used as criteria in accepting the test data. […] Cell proliferation was assessed using the WST-1 assay, which is based on measurement of metabolic activity via the reduction of tetrazolium salts to formazan salts. […] Absorbance was measured at 450 nm on the VICTOR™ X2 multilabel plate reader (PerkinElmer). […] The software (XLfit from IDBS) calculated the percentage inhibition at each concentration of compound by normalizing to the DMSO control values. […] Percentage inhibition curves were plotted and IC50 values calculated.

Molecules are shown by their SMILES. Read-outs that look alike come from different tables or passages of the source. Bounds are passed on as bounds.

Consider `CO[C@H]1CC[C@H](N2C(=O)CNc3ncc(-c4ccc(C(C)(C)O)nc4)nc32)CC1` [Compound 1, 7-(6-(2-hydroxypropan-2-yl)pyridin-3-yl)-1-((1r,4r)-4-methoxycyclohexyl)-3,4-dihydropyrazino-[2,3-b]pyrazin-2(1H)-one], for which the “tumor volume reduction compared with vehicle control” value in the data set with PC3 tumors (5 mg/kg BID) is reported as 64.9%; with PC3 tumors (10 mg/kg BID), 79.9%. The “tumor volume reduction compared to vehicle control” value in the data set with PC3 tumors (10 mg/kg QD oral) is listed as 46.1%; in the data set on PC3 tumors (25 mg/kg QD oral), 86.7%. The average tumor volume in the data set on PC3 tumors (10 mg/kg QD, Day 31 (vehicle 712)) is 383 mm^3; in the data set on PC3 tumors (25 mg/kg QD group, Day 52 after 3 weeks without dosing) it was “about 427 mm^3”; with PC3 tumors (25 mg/kg QD, Day 31 (158 on Day 11; vehicle 712)), 123 mm^3; in the data set on PC3 tumors (regression study, 10 mg/kg BID, day 43 (482.2±12.6 on day 20)), 343.6±32.6 mm^3. Further, the “tumor inhibition compared to vehicle control” value stood at 72% in the data set on PC3 tumors (25 mg/kg Q2D); 61% with PC3 tumors (25 mg/kg Q3D); 82% with PC3 tumors (50 mg/kg Q3D); 61% with PC3 tumors (50 mg/kg Q5D); 49% in the data set with PC3 tumors (50 mg/kg Q7D). The tumor response entry in the data set with PC3 tumors (25 mg/kg QD oral, 3 weeks) is “Tumor regression”; in the data set on PC3 tumors (regression study, 1 mg/kg BID, vs vehicle) it was “significantly (p<0.01) slowed tumor growth”; in the data set on PC3 tumors (regression study, 5 mg/kg BID) it was “stasis of tumor growth”; in the data set with PC3 tumors (regression study, 10 mg/kg BID), “regression of PC3 tumors”; in the data set with PC3 tumors (regression study, 25 mg/kg Q2D), “regression of tumors initially during the first 2 weeks of dosing”. In addition, the “tumor volume at the end of the second cycle” value with PC3 tumors (25 mg/kg QD, second 3-week cycle) is given as “approximately 729 mm^3”. The “lowest (minimal) efficacious dose” value in the data set on PC3 tumors (BID, determined by 65% tumor volume inhibition) was 5 mg/kg. The same compound returned a tumor volume in the data set with PC3 tumors (regression study, 25 mg/kg Q2D, day 43 (475.1±19.6 on day 20)) of 549.4±45.7 mm^3. In addition, the “loss of starting body weight” value is 4% in data set [1] (10 mg/kg QD oral, Day 6 (24 hours after the 5th dose)); 9% in data set [1] (25 mg/kg QD oral, Day 6 (24 hours after the 5th dose)); > 17% in data set [1] (50 mg/kg QD oral, Day 5 (24 hours after the 4th dose)).
As for `CCN1C(=O)CNc2ncc(-c3ccc(-c4nc[nH]n4)nc3C)nc21` [Compound 2, 1-ethyl-7-(2-methyl-6-(1H-1,2,4-triazol-3-yl)pyridin-3-yl)-3,4-dihydropyrazino[2,3-b]pyrazin-2(1H)-one], the IC50 in the data set with PC3 cell line (PC-3, 72 h, PC3 cell line, 3 days, average, read-out: growth inhibition IC50) was 140 nM; in the data set on PC3 cell line (PC-3, prostate tumor cells, read-out: growth inhibition IC50 values) it was 140 to 1310 nM.

As a reminder, the IC50 is the concentration that gives 50% inhibition.

These data come from patent US20140113904A1, “TREATMENT OF CANCER WITH TOR KINASE INHIBITORS” (SIGNAL PHARMACEUTICALS, LLC, priority 2012, published 2014).
